Where no end group is shown, it is not given here.
Columns and labels:
Assay type in all cases: in vivo, rat
[1] = test system: thoracic aortas of hypertensive rats by angiotensin II infusion; assay: Angiotensin II infusion model: aortic hypertrophy by morphometry; conditions: thoracic aorta, 14 days infusion
Method: (§1) Rats were subjected to the model of angiotensin II infusion (Grobe et al.: Am. J. Physiol. 292: H736-42, 2007). The animals were separated randomly into the following experimental groups: controls (Sham or pseudo-operated), infused with angiotensin II (300 ng/kg min), infused with angiotensin II and angiotensin-(1-9) (300 ng/kg min and 602 ng/kg min, respectively), and then infused with angiotensin II, angiotensin-(1-9) and the angiotensin-(1-7) receptor antagonist, A779 (300 ng/kg min, 602 ng/kg min, and 100 ng/kg min, respectively). In all cases the pumps operated at a flow of 0.5 μL/h and were implanted in the right jugular vein through a catheter fitted in an intrascapular subcutaneous pocket under anesthesia with ketamine HCl/xylazine (35 and 7 mg/kg i.p., respectively), for a period of 14 days.
Aortic hypertrophy was determined by morphometry. Sections of the descending aorta of 5 μm thick, which were previously fixed in Bouin (1.3% picric acid, 9.5% formaldehyde and 4.8% acetic acid) for 24 hours, embedded in paraffin and stained with hematoxylin-eosin, were used, to be examined later in a light microscope as described by Igase et al. (Am. J. Physiol. 289:H1013-9, 2005). Briefly, images of the aortas were captured by a video camera (Nikon) fixed to a microscope (Nikon), and projected on a monitor; using the software Nis-Element. Lumen areas (LA) and total areas (TA) were calculated and recorded. The tunica media area (TMA) was obtained from the difference between the TA and LA of the aorta. The tunica media thickness (TMT) was defined as the region delimited by the external elastic lamina (EEL) and internal elastic lamina (IEL).

[2] = test system: TGF-β mRNA; assay: Angiotensin II infusion model: TGF-β mRNA levels in the aortic wall; conditions: angiotensin II-infused rats
Method: as §1
(§2) The procedure described by Ocaranza et al. (Hypertension 48:572-8, 2006) was followed. Briefly, total RNA was isolated from the aorta using the trizol method and quantified by spectroscopy at 260 nm/280 nm. The cDNA was obtained by reverse transcription from 1.5 μg of total RNA treated with DNAse. […] The band intensity was quantified by densitometry and normalized to the 18S ribosomal RNA band.

[3] = test system: MCP-1 mRNA; assay: Angiotensin II infusion model: MCP-1 mRNA levels in the aortic wall
Method: as §1, §2

[4] = test system: collagen I; assay: Goldblatt model: collagen I protein levels in the aortic wall; conditions: GB rats
Text: (§3) Lewis normotensive rats (weight 150±10 g), which were separated randomly into the experimental hypertension model group or GB (Ocaranza et al. J. Hypertens. 20:413-20, 2002) or control group (S) were used. The latter corresponded to pseudo-operated animals. All animals were maintained under controlled conditions of light and darkness and had free access to food and water. Four weeks after surgery and at a blood pressure above 140 mmHg, GB rats were randomized for the chronic administration of angiotensin-(1-9) through an osmotic pump (602 ng kg^−1min^−1) via the jugular vein during two weeks. The animals were euthanized after 6 weeks post-surgery.
For the determination of collagen I and TGFβ-1, 30 μg and 50 μg of total proteins were used, respectively, diluted in SDS reducing buffer (50 mM tris-HCl, pH 7.4, NP-40 10%, NaCl 1M, Na deoxycholate 5%, EDTA 10 mg/mL, SDS 10%, aprotinin 1 mg/mL, leupeptin 0.1 mg/mL, PMSF 10 mM), they were then separated by SDS-PAGE gel electrophoresis 7%, and transferred to nitrocellulose membranes of […] to 300 mA for 1 h. The transfer of proteins was monitored by Ponceau red staining. […]

[5] = test system: ED-1; assay: Goldblatt model: ED-1 levels of the aortic wall (immunohistochemistry); conditions: GB rats
Text: as §3
Immunostaining was performed using the streptavidin-biotin-peroxidase method with the inflammation marker ED-1. This is a glycoprotein expressed primarily in the lysosomal membrane of active macrophages (Leskovar et al. J. Exp. Biol. 203:1783-1795, 2000).
In order to block endogenous peroxidase, the samples were deparaffinized, rehydrated and treated with 10% H2O2 in methanol for 1 h. Then, the tissues were incubated with monoclonal antibody anti ED-1 (clone MCA341R, Serotec) diluted 1/1000 in 1% BSA prepared in PBS-0.05% Tween 20 overnight at 4° C. in a humid chamber. The sections were washed three times with 1×PBS-0.05% Tween 20, pH 7.4 for 5 min and incubated with the biotinylated secondary antibody for 30 min at room temperature. […]

## DRVYIHPFH
[1]
  ratio of tunica media area (TMA) to LA: significantly prevented the increase
  thickness of the tunica media (TMT): significantly prevented the increase
[2]
  reduction of TGF-β mRNA levels: 62.5%
[3]
  MCP-1 mRNA levels: no differences
[4]
  reduction of the increase of collagen in the aorta wall: 54%
[5]
  decrease of ED-1 levels: 82%
